# From the supplement of paper PMC13380429
# ± gives the standard deviation of the averaged measurements.
# Tests used:
# Settings in all cases: 72 h
# Caco-2 [1] = assay: cell viability relative to DMSO; higher = less toxic
# Calu-3 [2] = assay: as above
# HepG2 [3] = assay: as above
# U2OS [4] = assay: as above
# Vero E6 [5] = assay: as above
# Caco-2 [6] = assay: relative viability EC50 (midpoint between 100% and the lowest measured viability); higher = less toxic
# Calu-3 [7] = assay: as above
# HepG2 [8] = assay: as above
# U2OS [9] = assay: as above
# Vero E6 [10] = assay: as above
# Caco-2 [11] = assay: drug sensitivity score (DSS) for viability; higher = more toxic; extreme values may be limits of the assay
# Calu-3 [12] = assay: as above
# HepG2 [13] = assay: as above
# U2OS [14] = assay: as above
# Vero E6 [15] = assay: as above
Compound,cell viability (Caco-2 [1]; 1 nM),cell viability (Caco-2 [1]; 10 nM),cell viability (Caco-2 [1]; 100 nM),cell viability (Caco-2 [1]; 1000 nM),cell viability (Caco-2 [1]; 10000 nM),cell viability (Calu-3 [2]; 1 nM),cell viability (Calu-3 [2]; 10 nM),cell viability (Calu-3 [2]; 100 nM),cell viability (Calu-3 [2]; 1000 nM),cell viability (Calu-3 [2]; 10000 nM),cell viability (HepG2 [3]; 1 nM),cell viability (HepG2 [3]; 10 nM),cell viability (HepG2 [3]; 100 nM),cell viability (HepG2 [3]; 1000 nM),cell viability (HepG2 [3]; 10000 nM),cell viability (U2OS [4]; 1 nM),cell viability (U2OS [4]; 10 nM),cell viability (U2OS [4]; 100 nM),cell viability (U2OS [4]; 1000 nM),cell viability (U2OS [4]; 10000 nM),cell viability (Vero E6 [5]; 1 nM),cell viability (Vero E6 [5]; 10 nM),cell viability (Vero E6 [5]; 100 nM),cell viability (Vero E6 [5]; 1000 nM),cell viability (Vero E6 [5]; 10000 nM),relative viability EC50 (Caco-2 [6]),relative viability EC50 (Calu-3 [7]),relative viability EC50 (HepG2 [8]),relative viability EC50 (U2OS [9]),relative viability EC50 (Vero E6 [10]),drug sensitivity score (Caco-2 [11]),drug sensitivity score (Calu-3 [12]),drug sensitivity score (HepG2 [13]),drug sensitivity score (U2OS [14]),drug sensitivity score (Vero E6 [15])
O=C(O)CCc1c(C(=O)O)[nH]c2cc(Cl)cc(Cl)c12,92.8%,104%,90.9%,102%,99.4%,91.6%,96.3%,93.2%,97.5%,106%,102%,92.5%,94.2%,107%,105%,96.2%,103%,95.9%,99.7%,97.5%,99.9%,102%,102%,94.3%,102%,> 10 µM,> 10 µM,> 10 µM,> 10 µM,> 10 µM,0,0,0,0,0
O=C(O)Cn1c(C(=O)Nc2nc(-c3ccccc3Cl)cs2)cc2ccccc21,103%,99.9%,95.1%,89.5%,110%,100%,92.5%,99.4%,103%,102%,106%,99.2%,101%,104%,93.3%,96%,101%,95.6%,101%,98.5%,105%,106%,103%,108%,97.4%,> 10 µM,> 10 µM,> 10 µM,> 10 µM,> 10 µM,0,0,0,0,0
C#C[C@]1(OC(C)=O)CC[C@H]2[C@@H]3CCC4=CC(=NO)CC[C@@H]4[C@H]3CC[C@@]21CC (mixture of isomers) [norgestimate],98.3%,87.7%,73.4%,93%,92.4%,98.6%,104%,102%,106%,104%,108%,97.6%,107%,91.3%,111%,97%,104%,94.3%,99.6%,96.2%,99%,94%,99.2%,99.6%,102%,> 10 µM,> 10 µM,> 10 µM,> 10 µM,> 10 µM,0,0,0,0,0
CC[C@@H](C)c1ccc(NC(=O)Cn2cnc3c2c(=O)n(C)c(=O)n3C)cc1 (racemic),98.5%,90.1%,89.8%,97.3%,92.5%,99.4%,100%,98.6%,99%,95.6%,95.9%,100%,96.6%,100%,93.4%,98.6%,97.1%,98.3%,96.9%,98.6%,96%,98.3%,92.6%,94%,106%,> 10 µM,> 10 µM,> 10 µM,> 10 µM,> 10 µM,0,0,0,0,0
CC(=C(CCO)SSCC1CCCO1)N(C=O)Cc1cnc(C)nc1N (stereo in doubt) [fursultiamine],112%,91.6%,97.6%,106%,96%,98.5%,101%,108%,110%,114%,93.3%,87.5%,90.2%,110%,97.8%,101%,102%,98.7%,97.8%,98.2%,106%,95.5%,99.2%,97.3%,102%,> 10 µM,> 10 µM,> 10 µM,> 10 µM,> 10 µM,0,0,0,0,0
C[C@H]1NC(=O)NC1=O [5-methylhydantoin-(D)],97.5 ± 3.3%,94.4 ± 0.14%,104 ± 2.3%,95.3 ± 5.5%,101 ± 2.6%,95.5 ± 5.9%,99.6 ± 5%,94.5 ± 3.2%,102 ± 3%,101 ± 6.9%,93 ± 4.9%,100 ± 0.64%,93.3 ± 5.9%,98.1 ± 8.6%,106 ± 2.8%,97.85 ± 0.49%,100 ± 5%,98.8 ± 5.1%,98.2 ± 2.3%,100 ± 2.4%,97.1 ± 7.1%,102 ± 4.5%,96.4 ± 0.71%,99.4 ± 0.57%,100 ± 8%,> 10 µM,> 10 µM,> 10 µM,> 10 µM,> 10 µM,0,0,0,0,0
C[C@H](Nc1ncnc2[nH]cnc12)c1cc2ccc(F)cc2nc1-c1ccccn1 [AMG319],100 ± 4.2%,104 ± 6.4%,98.5 ± 1.3%,93.4 ± 5.8%,95 ± 13%,103 ± 0.64%,97.2 ± 1.3%,108 ± 8.1%,100 ± 13%,96.5 ± 2.5%,103 ± 2.3%,96.5 ± 11%,115 ± 5%,97.8 ± 6.2%,99.3 ± 5.4%,99%,101%,98.3%,102%,101%,98.8 ± 3.9%,97.8 ± 0.85%,98.5 ± 1.2%,92.2 ± 2.3%,83.7 ± 4.1%,> 10 µM,> 10 µM,> 10 µM,> 10 µM,> 10 µM,0.2 ± 0.28,0,0,0,0.75 ± 0.35
CSc1nc(-c2ccc(F)cc2)c(-c2ccnc(N[C@@H](C)c3ccccc3)c2)[nH]1 [ML3403],94.6%,93.4%,97.3%,94.2%,74.2%,101%,99.1%,103%,94.5%,89.8%,100%,101%,97.6%,105%,86.5%,99.9%,99.1%,100%,94.8%,90.9%,102%,105%,101%,99.8%,88.7%,,> 10 µM,> 10 µM,> 10 µM,> 10 µM,1.9,0,0.1,0,0
COCCCOc1cc(C[C@@H](C[C@H](N)[C@@H](O)C[C@H](C(=O)NCC(C)(C)C(N)=O)C(C)C)C(C)C)ccc1OC [aliskiren-hemifumarate],84.8%,81.9%,70.4%,89.1%,100%,88.8%,101%,96.5%,96%,88%,111%,103%,103%,87.5%,100%,97.2%,102%,101%,103%,93.7%,93.8%,95.3%,91.8%,93.9%,93.2%,,> 10 µM,> 10 µM,> 10 µM,> 10 µM,3.7,0,0,0,0
Cc1nc(C#Cc2ccnc(Cl)c2)c(C)n1-c1ccc(F)cc1 [basimglurant],101%,95.2%,101%,90.5%,66.5%,88.4%,90.6%,92.2%,92.4%,95.8%,104%,99.5%,102%,95.3%,77.4%,91.4%,96.1%,101%,91.9%,93.2%,106%,101%,96.9%,102%,91.3%,,> 10 µM,> 10 µM,> 10 µM,> 10 µM,3,0,1.4,0,0
O[C@H]1[C@H](O)[C@@H](O)CN2CC[C@H](O)[C@H]12 [castanospermine],100%,99%,106%,98.2%,100%,102%,96.6%,96.9%,103%,104%,101%,99.3%,102%,110%,97.5%,,,,,,97.4%,99.3%,91%,102%,91.8%,> 10 µM,> 10 µM,> 10 µM,,> 10 µM,0,0,0,,0
CCOc1ccccc1-n1c(C(C)N2CCN(C(=O)COc3ccc(Cl)cc3)CC2)nc2ccccc2c1=O (stereo not given) [erastin],103%,94.8%,96.9%,97.1%,43.4%,113%,97.4%,109%,81.3%,13.5%,96.6%,102%,109%,89.8%,5.5%,,,,,,96%,99.4%,95.8%,97.2%,15.5%,2.76 µM,1.67 µM,2.27 µM,,2.92 µM,3.5,7.8,6.9,,5.1
O=C(Nc1ccc([N+](=O)[O-])cc1Cl)c1cc(Cl)ccc1O [niclosamide],101%,102%,95.3%,93.7%,17.6%,106%,98.4%,92.2%,91.3%,86.2%,104%,99.4%,109%,98%,9.9%,101%,104%,97.2%,103%,68.9%,101%,99.7%,102%,102%,20%,2.54 µM,> 10 µM,3.01 µM,,3.34 µM,5.6,0.6,5.3,1.2,4.2
O=C1[C@H]2CCCC[C@H]2C(=O)N1CCCCN1CCN(c2nsc3ccccc23)CC1 [perospirone],86.7%,87%,91.8%,92.9%,65.9%,94.1%,101%,99.3%,98.7%,89%,97.4%,88.9%,89.1%,89.1%,86.1%,96.2%,99.7%,104%,92.9%,92.8%,104%,98.7%,102%,101%,107%,,> 10 µM,> 10 µM,> 10 µM,> 10 µM,3.4,0,2,0,0
Cc1cc(CC(=O)O)n(C)c1C(=O)c1ccc(Cl)cc1 [zomepirac],94.4%,97.7%,75.3%,74.4%,77.8%,94.7%,99.6%,97.4%,94.3%,103%,88%,84.9%,84.7%,101%,91.6%,96.6%,101%,92.9%,97.7%,99.6%,105%,94.6%,104%,94.4%,93.7%,,> 10 µM,> 10 µM,> 10 µM,> 10 µM,7.3,0,0.1,0,0
